Measurements taken from patent publication US20090022806A1, “Nanoparticle and polymer formulations for thyroid hormone analogs, antagonists and formulations and uses thereof” (priority 2006, published 2009).

Columns and labels:
purified αVβ3 integrin = target: T1, purified αVβ3 integrin (Homo sapiens, UniProt P05106+P06756); assay: Radioligand binding assay, [125I]-T4 to purified integrin
T1 construct: purchased
Protocol: Two μg of purified αVβ3 was mixed with indicated concentrations of test compounds and allowed to incubate for 30 min at room temperature. […] The samples were mixed with sample buffer (50% glycerol, 0.1M Tris-HCl, pH 6.8, and bromophenol blue) and runout on a 5% basic-native gel for 24 h at 45 mA in the cold. The apparatus was disassembled and the gels were placed on filter paper, wrapped in plastic wrap, and exposed to film. Band intensity was determined using the VersaDoc 5000 Imaging system.

[1] = tested on: Human dermal micro-vascular endothelial cells (HDMEC); assay: Three-dimensional human micro-vascular endothelial sprouting assay; format: cell-based
Protocol: In Vitro Three-Dimensional Sprout Angiogenesis of Human Dermal Micro-Vascular Endothelial Cells (HDMEC) Cultured on Micro-Carrier Beads Coated with Fibrin: Confluent HDMEC (passages 5-10) were mixed with gelatin-coated Cytodex-3 beads with a ratio of 40 cells per bead. Cells and beads (150-200 beads per well for 24-well plate) were suspended with 5 ml EBM+15% normal human serum, mixed gently every hour for first 4 hours, then left to culture in a CO2 incubator overnight. The next day, 10 ml of fresh EBM+5% HS were added, and the mixture was cultured for another 3 hours. Before experiments, the culture of EC-beads was checked; then 500 ul of PBS was added to a well of 24-well plate, and 100 ul of the EC-bead culture solution was added to the PBS. The number of beads was counted, and the concentration of EC/beads was calculated.
A fibrinogen solution (1 mg/ml) in EBM medium with or without angiogenesis factors or testing factors was prepared. For positive control, 50 ng/ml VEGF+25 ng/ml FGF2 was used. EC-beads were washed with EBM medium twice, and EC-beads were added to fibrinogen solution. The experiment was done in triplicate for each condition. The EC-beads were mixed gently in fibrinogen solution, and 2.5 ul human thrombin (0.05 U/ul) was added in 1 ml fibrinogen solution; 300 ul was immediately transferred to each well of a 24-well plate. The fibrinogen solution polymerizes in 5-10 minutes; after 20 minutes, we added EBM+20% normal human serum+10 ug/ml aprotinin. The plate was incubated in a CO2 incubator. It takes about 24-48 hours for HDMEC to invade fibrin gel and form tubes.
A micro-carrier in vitro angiogenesis assay previously designed to investigate bovine pulmonary artery endothelial cell angiogenic behavior in bovine fibrin gels [Nehls and Drenckhahn, 1995a, b] was modified for the study of human microvascular endothelial cell angiogenesis in three-dimensional ECM environments (FIGS. 1 and 2). Briefly, human fibrinogen, isolated as previously described [Feng et al, 1999], was dissolved in M199 medium at a concentration of 1 mg/ml (pH 7.4) and sterilized by filtering through a 0.22 micron filter. An isotonic 1.5 mg/ml collagen solution was prepared by mixing sterile Vitrogen 100 in 5×M199 medium and distilled water. The pH was adjusted to 7.4 by 1N NaOH. In certain experiments, growth factors and ECM proteins (such as VEGF, bFGF, PDGF-BB, serum, gelatin, and fibronectin) were added to the fibrinogen or collagen solutions. About 500 EC-beads were then added to the 1 mg/ml fibrinogen or 1.5 mg/ml collagen solutions. Subsequently, EC-beads-collagen or EC-beads-fibrinogen suspension (500 EC-beads/ml) was plated onto 24-well plates at 300 ul/well. EC-bead-collagen cultures were incubated at 37° C. to form gel. The gelling of EC-bead-fibrin cultures occurred in less than 5 minutes at room temperature after the addition of thrombin to a final concentration of 0.5 U/ml. After gelation, 1 ml of fresh assay medium (EBM supplemented with 20% normal human serum for HDMEC or EBM supplemented with 10% fetal bovine serum was added to each well. The angiogenic response was monitored visually and recorded by video image capture. Specifically, capillary sprout formation was observed and recorded with a Nikon Diaphot-TMD inverted microscope (Nikon Inc.; Melville, N.Y.), equipped with an incubator housing with a Nikon NP-2 thermostat and Sheldon #2004 carbon dioxide flow mixer. The microscope was directly interfaced to a video system consisting of a Dage-MTI CCD-72S video camera and Sony 12″ PVM-122 video monitor linked to a Macintosh G3 computer. The images were captured at various magnifications using Adobe Photoshop. The effect of angiogenic factors on sprout angiogenesis was quantified visually by determining the number and percent of EC-beads with capillary sprouts. One hundred beads (five to six random low power fields) in each of triplicate wells were counted for each experimental condition. All experiments were repeated at least three times. […]

[2] = hormone 0.1 uM alone, pretreated FGF2 1.25 ng/ml + VEGF […], day 3

T1 sequence (P06756 31-889 limits assumed): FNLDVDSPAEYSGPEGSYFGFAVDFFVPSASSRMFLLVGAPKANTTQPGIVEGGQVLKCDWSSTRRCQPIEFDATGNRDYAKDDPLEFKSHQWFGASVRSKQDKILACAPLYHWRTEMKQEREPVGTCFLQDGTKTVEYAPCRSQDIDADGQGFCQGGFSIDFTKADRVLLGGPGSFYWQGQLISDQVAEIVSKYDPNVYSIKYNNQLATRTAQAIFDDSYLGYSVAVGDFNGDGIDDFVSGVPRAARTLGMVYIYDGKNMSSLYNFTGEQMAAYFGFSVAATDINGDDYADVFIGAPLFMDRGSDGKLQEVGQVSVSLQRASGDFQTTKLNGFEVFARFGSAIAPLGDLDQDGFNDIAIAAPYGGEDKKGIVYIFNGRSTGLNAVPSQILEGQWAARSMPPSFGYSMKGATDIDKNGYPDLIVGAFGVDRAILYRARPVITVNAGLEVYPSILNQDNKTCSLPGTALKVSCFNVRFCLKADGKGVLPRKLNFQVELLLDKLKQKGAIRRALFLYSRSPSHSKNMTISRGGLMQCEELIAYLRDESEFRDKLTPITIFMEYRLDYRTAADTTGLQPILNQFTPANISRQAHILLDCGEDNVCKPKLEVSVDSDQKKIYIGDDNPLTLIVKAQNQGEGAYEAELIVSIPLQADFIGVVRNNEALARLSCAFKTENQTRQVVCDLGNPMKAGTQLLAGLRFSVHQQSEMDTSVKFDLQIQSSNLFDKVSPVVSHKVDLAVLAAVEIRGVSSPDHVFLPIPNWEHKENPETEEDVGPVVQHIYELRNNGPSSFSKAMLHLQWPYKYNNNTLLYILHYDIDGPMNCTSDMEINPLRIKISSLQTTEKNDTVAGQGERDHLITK
T1 sequence (P06756 891-1048 partner limits assumed): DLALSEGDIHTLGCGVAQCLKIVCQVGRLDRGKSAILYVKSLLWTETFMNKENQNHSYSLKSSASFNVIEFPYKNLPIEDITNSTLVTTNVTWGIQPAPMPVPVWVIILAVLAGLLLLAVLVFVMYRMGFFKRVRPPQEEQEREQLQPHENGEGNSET
T1 sequence (P05106 27-788): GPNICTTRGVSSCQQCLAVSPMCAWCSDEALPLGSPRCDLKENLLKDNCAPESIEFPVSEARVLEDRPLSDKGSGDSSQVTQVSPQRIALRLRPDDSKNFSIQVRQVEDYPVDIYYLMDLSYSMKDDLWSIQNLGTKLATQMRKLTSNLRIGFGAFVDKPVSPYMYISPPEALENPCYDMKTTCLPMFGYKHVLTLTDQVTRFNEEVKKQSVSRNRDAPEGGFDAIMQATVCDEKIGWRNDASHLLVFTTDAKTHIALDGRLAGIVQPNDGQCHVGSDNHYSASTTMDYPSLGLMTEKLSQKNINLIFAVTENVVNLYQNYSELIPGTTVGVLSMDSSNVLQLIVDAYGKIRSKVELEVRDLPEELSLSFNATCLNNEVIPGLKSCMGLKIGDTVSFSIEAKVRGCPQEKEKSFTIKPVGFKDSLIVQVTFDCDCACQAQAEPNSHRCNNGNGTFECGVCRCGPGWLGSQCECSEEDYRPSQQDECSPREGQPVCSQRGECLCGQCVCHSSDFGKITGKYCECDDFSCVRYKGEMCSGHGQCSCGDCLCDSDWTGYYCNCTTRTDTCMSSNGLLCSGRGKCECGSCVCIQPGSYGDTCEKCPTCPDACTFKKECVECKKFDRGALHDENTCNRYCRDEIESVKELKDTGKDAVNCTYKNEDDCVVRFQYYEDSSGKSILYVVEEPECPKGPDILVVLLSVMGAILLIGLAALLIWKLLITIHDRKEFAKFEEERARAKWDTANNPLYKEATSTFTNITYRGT

reduction of [125I]T4 binding to purified αVβ3 (purified αVβ3 integrin; competitor 10^−4 M): almost completely displaced | reduction of [125I]T4 binding to purified αVβ3 (purified αVβ3 integrin; competitor 10^−5 M): maximal | reduction of [125I]T4 binding to purified αVβ3 (purified αVβ3 integrin; competitor 10^−6 M (total)): 58% | reduction of [125I]T4 binding to purified αVβ3 (purified αVβ3 integrin; competitor 10^−7 M (total)): 13% | EC50 (purified αVβ3 integrin; non-linear regression): 0.371 nM | Kd (purified αVβ3 integrin; non-linear regression): 0.333 nM
SMILES: N[C@@H](Cc1cc(I)c(Oc2cc(I)c(O)c(I)c2)c(I)c1)C(=O)O [T4, L-thyroxine]
stimulation of angiogenesis ([1]; 0.01-0.1 μM): significant (P<0.01) stimulation of angiogenesis | Mean Tube Vessel Length (mm) ± SD ([1]; FGF2 25 ng + VEGF 50 ng, T3 20 ng, T4 23 ng, T4-agarose 23 ng, pre-treated with FGF2 1.25 ng/ml + VEGF […]): 1.65 ± 0.15 mm | Mean number of Migrated cells ± SD [1, 2]: 182 ± 11 | Mean vessel Length (mm) ± SD [1, 2]: 1.16 ± 0.21 mm
